pIC50: −log10 of the molar value. Active and inactive are the calls of the source. How the calls were made is not given here.
Target: Activin receptor type-1 (Homo sapiens) (UniProt Q04771)
Assay: ALK2 kinase inhibitors, SAR follow-up, biochemical, secondary in vitro (AID 652276)
Conditions: in vitro ALK2 kinase assay

Activin receptor type-1 (Homo sapiens), sequence (Q04771 whole entry, looked up): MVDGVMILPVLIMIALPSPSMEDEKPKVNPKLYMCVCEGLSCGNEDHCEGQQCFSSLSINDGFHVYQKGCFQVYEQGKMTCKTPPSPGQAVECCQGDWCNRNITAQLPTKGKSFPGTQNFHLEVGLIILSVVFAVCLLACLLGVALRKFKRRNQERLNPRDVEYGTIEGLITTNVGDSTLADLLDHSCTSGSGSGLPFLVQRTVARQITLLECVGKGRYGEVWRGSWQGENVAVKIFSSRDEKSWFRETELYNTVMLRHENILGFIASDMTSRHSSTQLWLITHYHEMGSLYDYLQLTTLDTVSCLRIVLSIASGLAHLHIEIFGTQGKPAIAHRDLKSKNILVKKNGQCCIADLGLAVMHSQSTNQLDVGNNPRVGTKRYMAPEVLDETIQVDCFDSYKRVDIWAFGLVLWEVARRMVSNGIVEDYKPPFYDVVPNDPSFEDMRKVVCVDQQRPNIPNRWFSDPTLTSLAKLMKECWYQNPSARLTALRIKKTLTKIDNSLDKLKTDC

Compound	pIC50
COc1ccc(-c2cnc3c(-c4cn[nH]c4)cnn3c2)cc1	6.96
COc1ccc(-c2cnc3c(-c4ccnc5ncccc45)cnn3c2)cc1	6.92
c1cc(N2CCNCC2)ccc1-c1cnc2c(-c3cn[nH]c3)cnn2c1	7.37

More lines, now with the values ahead:

pIC50	Compound
7.28	c1cc(N2CCOCC2)ccc1-c1cnc2c(-c3cn[nH]c3)cnn2c1
7.48	COc1ccc(-c2cnc3c(-c4ccnc5ccccc45)cnn3c2)cc1

Same assay, conditions: in vitro ALK2 kinase assay; at 100 µM (top of the series)

remaining activity (low = inhibition)	Compound
0.93	c1ccc2c(-c3cnn4cc(-c5ccc(N6CCOCC6)cc5)cnc34)ccnc2c1
inactive	COc1ccc(-c2cnc3c(-c4cccc5cccnc45)cnn3c2)cc1
-0.03	CN1CCN(c2ccc(-c3cnc4c(-c5ccnc6ccccc56)cnn4c3)cc2)CC1
